Assay results from US10995104B2, “Catalysts for reversing formaldehyde adducts and crosslinks” (Roche Molecular Systems, Inc., priority 2017, dated 2021).

Tested on: methylene-bis-dAMP dimer
Assay: Reversal of cross-linking of the methylene-bis-dAMP dimer with catalysts, monitored by HPLC
Settings: 5.0 mM catalyst, 1.0 mM dAMP dimer, 50 mM phosphate buffer pH 5.0, 60° C., aliquots at 10-90 minutes (FIG. 3)
Protocol: Reverse crosslinking of the methylene-bis-dAMP dimer (as shown in FIG. 2) were monitored by HPLC. […] For each reaction mixture, an aliquot (10 μl) was taken at 10 minutes, 20 minutes, 40 minutes, 60 minutes and 90 minutes.

With `CCOP(=O)(OCC)C(N)c1ccccc1.Cl` (stereo not shown) [Compound 6, (Aminophenylmethyl)phosphonic acid diethyl ester] the “reversal of cross-linking (shown as % of dAMP produced), rate compared with no catalyst” value was “rates that are much faster than when no catalyst was added”.

For `Cl.Nc1ccccc1B(O)O` [Compound 2, 2-Aminophenylboronic acid], the “reversal of cross-linking (shown as % of dAMP produced), rate compared with no catalyst” value was “rates that are much faster than when no catalyst was added”.

`Cc1ccc(N)c(B(O)O)c1` [Compound 3, (2-Amino-5-methylphenyl)boronic acid] was tested, and the “reversal of cross-linking (shown as % of dAMP produced), rate compared with no catalyst” value was “rates that are much faster than when no catalyst was added”.

In the case of `[Br][Bi]([Br])[Br]` [Compound 7, Bismuth (III) bromide], the “reversal of cross-linking (shown as % of dAMP produced), rate compared with no catalyst” value is reported as “rates that are much faster than when no catalyst was added”.
